Our source for the Ki, inhibition and IC50 values is ChEMBL document CHEMBL2169823, “cis-4-amino-L-proline residue as a scaffold for the synthesis of cyclic and linear endomorphin-2 analogues: part 2” (J Med Chem, 2012).

Each structure is given as a SMILES string. Some results are limits rather than exact numbers.

Assay [1] concerns the target Delta-type opioid receptor (Homo sapiens, UniProt P41143). Put plainly: Displacement of [3H]DPDPE from delta opioid receptor transfected in […] HN9.10 cells after 3 hrs by liquid scintillation counter. In kind it is cell-based.
In assay [2] the target is Mu-type opioid receptor (Cavia porcellus) (UniProt P97266). Put plainly: Agonist activity at mu opioid receptor in Hartley guinea pig ileum longitudinal muscle myenteric plexus assessed as inhibition of electrically-induced smooth muscle contraction at 1 uM after 3 mins. In kind it is functional, tissue-based.
Assay [3] concerns the target Delta-type opioid receptor (Mus musculus) (UniProt P32300). The assay can be described thus: Agonist activity at delta opioid receptor in ICR mouse vas deferens assessed as inhibition of electrically-induced smooth muscle contraction at 1 uM after 3 mins. In kind it is functional, tissue-based.
In assay [4] the target is Mu-type opioid receptor (Homo sapiens, UniProt P35372). The assay can be described thus: Displacement of [3H]DAMGO from mu opioid receptor transfected in […] HN9.10 cells after 3 hrs by liquid scintillation counter. In kind it is cell-based. A general note: Displacement assays read how much labelled ligand stays bound in the presence of the test substance.
Assay [5] addresses Kappa-type opioid receptor (Homo sapiens, UniProt P41145). Put plainly: Displacement of [3H]U69593 from human kappa opioid receptor expressed in CHO cells after 60 mins by liquid scintillation counter. In kind it is cell-based.
The target in assay [6] is Mu-type opioid receptor (Cavia porcellus, UniProt P97266). The assay can be described thus: Agonist activity at mu opioid receptor in Hartley guinea pig ileum longitudinal muscle myenteric plexus assessed as inhibition of electrically-induced smooth muscle contraction after 3 mins. In kind it is functional, tissue-based.
In assay [7] the target is Delta-type opioid receptor (Mus musculus, UniProt P32300). The assay can be described thus: Agonist activity at delta opioid receptor in ICR mouse vas deferens assessed as inhibition of electrically-induced smooth muscle contraction after 3 mins. In kind it is functional, tissue-based.
Chain of Delta-type opioid receptor (Mus musculus, UniProt P32300) (P32300 whole entry): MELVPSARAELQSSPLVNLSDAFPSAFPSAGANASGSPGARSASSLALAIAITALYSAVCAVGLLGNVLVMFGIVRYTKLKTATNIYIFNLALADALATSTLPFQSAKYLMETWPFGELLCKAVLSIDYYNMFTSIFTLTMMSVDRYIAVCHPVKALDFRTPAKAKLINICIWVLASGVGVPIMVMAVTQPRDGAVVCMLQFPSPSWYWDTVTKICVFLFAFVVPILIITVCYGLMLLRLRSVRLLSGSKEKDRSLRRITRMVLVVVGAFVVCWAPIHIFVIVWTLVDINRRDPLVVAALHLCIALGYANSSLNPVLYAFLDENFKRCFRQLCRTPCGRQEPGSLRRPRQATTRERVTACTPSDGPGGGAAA

Chain of Mu-type opioid receptor (Cavia porcellus, UniProt P97266) (P97266 whole entry): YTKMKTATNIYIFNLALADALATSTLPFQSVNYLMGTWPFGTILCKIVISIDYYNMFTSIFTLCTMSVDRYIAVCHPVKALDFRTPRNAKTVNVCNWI
Chain of Mu-type opioid receptor (Cavia porcellus) (P97266 whole entry): as above
Chain of Mu-type opioid receptor (Homo sapiens, UniProt P35372) (P35372 whole entry): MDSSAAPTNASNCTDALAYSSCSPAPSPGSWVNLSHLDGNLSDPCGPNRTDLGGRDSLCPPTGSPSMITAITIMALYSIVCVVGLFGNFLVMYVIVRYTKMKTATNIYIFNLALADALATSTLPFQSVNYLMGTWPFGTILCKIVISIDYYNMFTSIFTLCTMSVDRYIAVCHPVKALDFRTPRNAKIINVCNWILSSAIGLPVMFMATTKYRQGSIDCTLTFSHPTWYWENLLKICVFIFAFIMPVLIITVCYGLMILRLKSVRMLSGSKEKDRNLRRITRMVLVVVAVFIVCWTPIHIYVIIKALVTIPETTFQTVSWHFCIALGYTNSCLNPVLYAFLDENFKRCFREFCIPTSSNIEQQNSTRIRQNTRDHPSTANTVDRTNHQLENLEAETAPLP
Chain of Delta-type opioid receptor (Mus musculus) (P32300 whole entry): as the sequence (P32300 whole entry) above
Chain of Kappa-type opioid receptor (P41145 whole entry): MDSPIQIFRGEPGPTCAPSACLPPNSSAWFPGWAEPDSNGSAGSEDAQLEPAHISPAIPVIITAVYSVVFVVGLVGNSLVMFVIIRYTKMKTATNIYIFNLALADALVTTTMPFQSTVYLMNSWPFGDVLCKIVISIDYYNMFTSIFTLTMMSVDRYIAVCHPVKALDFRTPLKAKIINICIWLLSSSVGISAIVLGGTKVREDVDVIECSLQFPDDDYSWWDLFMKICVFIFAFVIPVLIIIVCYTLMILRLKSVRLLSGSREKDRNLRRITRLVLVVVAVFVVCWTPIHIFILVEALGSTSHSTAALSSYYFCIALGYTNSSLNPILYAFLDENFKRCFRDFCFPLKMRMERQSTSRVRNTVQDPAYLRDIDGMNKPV
Chain of Delta-type opioid receptor (Homo sapiens, UniProt P41143) (P41143 whole entry): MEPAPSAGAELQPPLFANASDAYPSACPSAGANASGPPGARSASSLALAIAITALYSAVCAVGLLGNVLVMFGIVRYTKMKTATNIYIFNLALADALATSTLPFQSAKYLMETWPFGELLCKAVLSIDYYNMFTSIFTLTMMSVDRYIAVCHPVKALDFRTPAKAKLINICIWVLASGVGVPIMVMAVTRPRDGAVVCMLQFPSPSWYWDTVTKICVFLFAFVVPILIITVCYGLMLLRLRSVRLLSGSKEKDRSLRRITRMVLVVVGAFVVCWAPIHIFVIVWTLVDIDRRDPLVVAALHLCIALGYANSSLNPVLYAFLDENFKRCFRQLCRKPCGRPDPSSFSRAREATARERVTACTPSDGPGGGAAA

For orientation: Ki means a dissociation constant, usually derived from enzyme kinetics or from competition with a known ligand. The inhibition is how much of the control response was suppressed. In the case of `Br.NC(=O)[C@H](Cc1ccccc1)NC(=O)[C@@H](Cc1ccccc1)NC(=O)[C@@H]1C[C@H](N)CN1C(=O)[C@@H](N)Cc1ccc(O)cc1`, the figures for the Ki result (in assay [1]; at Mu-type opioid receptor [4]; in assay [5] (cho)) were “Not Active”, 760 nM and “Not Active”, respectively. Also, the inhibition was 12% in assay [2] and 14% in assay [3].

As for `Br.N[C@H]1C[C@@H](C(=O)N[C@H](Cc2ccccc2)C(=O)N[C@H](Cc2ccccc2)C(=O)O)N(C(=O)[C@@H](N)Cc2ccc(O)cc2)C1`, the Ki is greater than 10000 nM in assay [1] (read-out: Ki), greater than 10000 nM on Mu-type opioid receptor [4] and “Not Active” in assay [5] (cho). For the same molecule, the inhibition in assay [2] was 2%; in assay [3] it was 3.6%.

Usually IC50 stands for the concentration needed to halve the response being measured. With `N[C@@H](Cc1ccc(O)cc1)C(=O)N1C[C@@H]2C[C@H]1C(=O)N[C@H](Cc1ccccc1)C(=O)N[C@H](Cc1ccccc1)C(=O)N2`, the inhibition constant Ki was 1010 nM in assay [1] (read-out: Ki), 63 nM on Mu-type opioid receptor [4] and greater than 10000 nM in assay [5] (read-out: Ki). The IC50 on Mu-type opioid receptor [6] came out at 480 nM; in assay [7], 1400 nM.

On to `Br.NC(=O)[C@@H](Cc1ccccc1)NC(=O)[C@@H](Cc1ccccc1)NC(=O)[C@@H]1C[C@H](N)CN1C(=O)[C@@H](N)Cc1ccc(O)cc1`, for which the Ki entry in assay [1] was “Not Active”; at Mu-type opioid receptor [4] it was 3700 nM; in assay [5] (cho), “Not Active”. The inhibition in assay [2] is 0.9%; in assay [3] it was 0%.

In the case of `Br.N[C@H]1C[C@@H](C(=O)N[C@@H](Cc2ccccc2)C(=O)N[C@H](Cc2ccccc2)C(=O)O)N(C(=O)[C@@H](N)Cc2ccc(O)cc2)C1`, the inhibitory constant (Ki) entry is “Not Active” in assay [1], 760 nM on Mu-type opioid receptor [4] and “Not Active” in assay [5] (cho). For the same molecule, the inhibition in assay [2] came out at 3.2%; in assay [3] it was 1.3%.

Regarding `Br.NC(=O)[C@@H](Cc1ccccc1)NC(=O)[C@H](Cc1ccccc1)NC(=O)[C@@H]1C[C@H](N)CN1C(=O)[C@@H](N)Cc1ccc(O)cc1`, the Ki entry is “Not Active” in assay [1], greater than 10000 nM at Mu-type opioid receptor [4] and “Not Active” in assay [5] (cho). Besides, the 50% inhibitory concentration (IC50) at Mu-type opioid receptor [6] worked out at 2300 nM. For the same molecule, the inhibition in assay [3] was determined as 5.4%.

With `N[C@@H](Cc1ccc(O)cc1)C(=O)N1C[C@@H]2C[C@H]1C(=O)N[C@H](Cc1ccccc1)C(=O)N[C@@H](Cc1ccccc1)C(=O)N2`, the inhibitory constant (Ki) was 860 nM in assay [1] (read-out: Ki), 38 nM on Mu-type opioid receptor [4] and greater than 10000 nM in assay [5] (read-out: Ki). The IC50 at Mu-type opioid receptor [6] was determined as 330 nM; in assay [7], 950 nM.

Turning to `Br.N[C@H]1C[C@@H](C(=O)N[C@H](Cc2ccccc2)C(=O)N[C@@H](Cc2ccccc2)C(=O)O)N(C(=O)[C@@H](N)Cc2ccc(O)cc2)C1`, the values for the Ki entry (in assay [1]; at Mu-type opioid receptor [4]; in assay [5] (cho)) were “Not Active”, 1010 nM and “Not Active”, respectively. For the same molecule, the inhibition in assay [2] is 11%; in assay [3], 3.6%.
